We go through 77 sequences from the supplement of paper PMC11208160.
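Also: IS621 recombinase and bridge RNA in Escherichia coli cells.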

The series in a line: recombinant barcode read abundance after kanamycin selection (control-corrected) (log10(CPM+1)); higher = more efficient recombination; sequences stand for … in AGTGCAGAGAAAATCGGCCAGTTTTCTCTGCCTGCAGTCCGCATGCCGT…AGATTTATGCAGCGGACTGCCTTTCTCCCAAAGTGATAAACCGGACAGTATCATGGACCGGTTTTCCCGGTAATCCGTATTTGCAAGGTTGGTTTCACT; site = the 11-nt target. The procedure, abridged:
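Two replicates per condition were plated: chloramphenicol/ampicillin LB agar for the control, and chloramphenicol/ampicillin/kanamycin with 0.1 mM IPTG for selection. The pooled E. coli screen behind them paired targets with IS621 bridge RNA target-binding loops. Recombination efficiency is expressed from averaged, control-corrected barcode counts per million at recombinant junctions, as log10(CPM+1).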
Consider “ATGGATCCTTGGGTTCTAACCTGTTGCGT (site ATGGATCCTAC)”, for which the “recombinant barcode read abundance (log10)” value was 2.77.
“ATGGCCTCTTGGGTTCTAACCTGTTGCCT (site ATGACCTCTAG)”: the “recombinant barcode read abundance (log10)” value came to 0.822.
As to “ATGGCCTCTTGGGTTCTAACCTGTTGCCT (site ATGCCCTCTAG)”, the “recombinant barcode read abundance (log10)” value amounted to 0.0852.
As to “ATGGCCTCTTGGGTTCTAACCTGTTGCCT (site ATGGCCTCTAG)”, the “recombinant barcode read abundance (log10)” value was 2.2.
In the case of “ATGGCCTCTTGGGTTCTAACCTGTTGCCT (site ATGTCCTCTAG)”, the “recombinant barcode read abundance (log10)” value amounted to 0.0804.
With “ATGGGCCCTTGGGTTCTAACCTGTTGCTA (site ATGGGCCCTAA)”, the “recombinant barcode read abundance (log10)” value came out at 0.362.
The same measure for “ATGGGCCCTTGGGTTCTAACCTGTTGCTA (site ATGGGCCCTCA)”: 1.17; for “ATGGGCCCTTGGGTTCTAACCTGTTGCTA (site ATGGGCCCTGA)”: 0.288; for “ATGGGCCCTTGGGTTCTAACCTGTTGCTA (site ATGGGCCCTTA)”: 2.17.
With “ATGGGCCCTTGGGTTCTAACCTGTTGCTT (site ATGGGCCCTAA)”, the “recombinant barcode read abundance (log10)” value came to 2.01.
The same measure for “ATGGGCCCTTGGGTTCTAACCTGTTGCTT (site ATGGGCCCTCA)”: 0.00714.
The same measure for “ATGGGCCCTTGGGTTCTAACCTGTTGCTT (site ATGGGCCCTGA)”: 0.0928; for “ATGGGCCCTTGGGTTCTAACCTGTTGCTT (site ATGGGCCCTTA)”: 0.243.
Consider “ATGGTACCTTGGGTTCTAACCTGTTGCTA (site ATGGTACCTTA)”, for which the “recombinant barcode read abundance (log10)” value was 2.34.
For “ATGGTACCTTGGGTTCTAACCTGTTGCTA (site GATAACGCTAG)”, the “recombinant barcode read abundance (log10)” value was determined as 0.247.
“ATGGTGACTTGGGTTCTAACCTGTTGCCT (site ATGGTGACTAG)”: the “recombinant barcode read abundance (log10)” value is 1.21.
Turning to “ATGGTGACTTGGGTTCTAACCTGTTGCCT (site ATGGTGCCTAG)”, the “recombinant barcode read abundance (log10)” value turned out to be 0.296.
Consider “ATGGTGACTTGGGTTCTAACCTGTTGCCT (site ATGGTGGCTAG)”, for which the “recombinant barcode read abundance (log10)” value came to 0.0522.
For “ATGGTGACTTGGGTTCTAACCTGTTGCCT (site ATGGTGTCTAG)”, the “recombinant barcode read abundance (log10)” value amounted to 0.0769.
Regarding “ATGTCCTCTTGGGTTCTAACCTGTTGCCA (site ATGTCCTCTTG)”, the “recombinant barcode read abundance (log10)” value is 1.02.
With “ATGTCCTCTTGGGTTCTAACCTGTTGCCA (site GCTCGGGCTCC)”, the “recombinant barcode read abundance (log10)” value amounted to 0.
The same measure for “ATGTCTACTTGGGTTCTAACCTGTTGCAG (site ATGTCTACTCT)”: 0.673.
As to “ATGTCTACTTGGGTTCTAACCTGTTGCAG (site TGCCTATCTAA)”, the “recombinant barcode read abundance (log10)” value came to 0.219.
Consider “ATGTGCACTTGGGTTCTAACCTGTTGCAG (site ATGTGCACTCT)”, for which the “recombinant barcode read abundance (log10)” value turned out to be 2.15.
Consider “ATGTGCACTTGGGTTCTAACCTGTTGCAG (site CTGTGCACTCG)”, for which the “recombinant barcode read abundance (log10)” value was found to be 0.63.
Consider “ATTAAATCTTGGGTTCTAACCTGTTGCCT (site ATTAAATCTAG)”, for which the “recombinant barcode read abundance (log10)” value was 0.0334.
Turning to “ATTAAATCTTGGGTTCTAACCTGTTGCCT (site ATTAATCCTAG)”, the “recombinant barcode read abundance (log10)” value came out at 0.485.
The same measure for “ATTAACCCTTGGGTTCTAACCTGTTGCCT (site AATAACCCTAG)”: 0.0681; for “ATTAACCCTTGGGTTCTAACCTGTTGCCT (site ACTAACCCTAG)”: 0.0136; for “ATTAACCCTTGGGTTCTAACCTGTTGCCT (site AGTAACCCTAG)”: 0.085.
With “ATTAACCCTTGGGTTCTAACCTGTTGCCT (site ATTAACCCTAG)”, the “recombinant barcode read abundance (log10)” value is 1.21.
Consider “ATTAACTCTTGGGTTCTAACCTGTTGCCT (site ATTAACTCTAG)”, for which the “recombinant barcode read abundance (log10)” value was determined as 0.944.
For “ATTAACTCTTGGGTTCTAACCTGTTGCCT (site CGAGTGACTCT)” the value was 0.0163.
For “ATTAAGACTTGGGTTCTAACCTGTTGCCT (site ATAAAGACTAG)”, the “recombinant barcode read abundance (log10)” value amounted to 0.423.
For “ATTAAGACTTGGGTTCTAACCTGTTGCCT (site ATCAAGACTAG)” the value was 0.484; for “ATTAAGACTTGGGTTCTAACCTGTTGCCT (site ATGAAGACTAG)”, 0.11; for “ATTAAGACTTGGGTTCTAACCTGTTGCCT (site ATTAAGACTAG)”, 1.35.
For “ATTCGAGCTTGGGTTCTAACCTGTTGCGC (site ATTCGAGCTGC)” the value was 2.03; for “ATTCGAGCTTGGGTTCTAACCTGTTGCGC (site ATTCGGGCTAC)”, 0.0665.
As to “ATTCGAGCTTGGGTTCTAACCTGTTGCGG (site ATTCGAGCTCC)”, the “recombinant barcode read abundance (log10)” value was found to be 1.97.
In the case of “ATTCGAGCTTGGGTTCTAACCTGTTGCGG (site GTTCGAGCTCC)”, the “recombinant barcode read abundance (log10)” value came to 0.0863.
For “ATTGAGACTTGGGTTCTAACCTGTTGCTT (site ATTGAGACTAA)” the value was 1.33; for “ATTGAGACTTGGGTTCTAACCTGTTGCTT (site GAGAGTCCTTG)”, 0.0837; for “ATTGGGGCTTGGGTTCTAACCTGTTGCAG (site ATTAGGGCTCG)”, 0.266.
As to “ATTGGGGCTTGGGTTCTAACCTGTTGCAG (site ATTGGGGCTCT)”, the “recombinant barcode read abundance (log10)” value stood at 2.38.
“ATTTAAGCTTGGGTTCTAACCTGTTGCCT (site ATTTAAGCTAG)”: the “recombinant barcode read abundance (log10)” value was found to be 0.498.
“ATTTAAGCTTGGGTTCTAACCTGTTGCCT (site GAGCGGCCTCT)”: the “recombinant barcode read abundance (log10)” value was 0.0137.
As for “ATTTCTTCTTGGGTTCTAACCTGTTGCCT (site ATATCTTCTAG)”, the “recombinant barcode read abundance (log10)” value turned out to be 0.113.
For “ATTTCTTCTTGGGTTCTAACCTGTTGCCT (site ATTTCTTCTAG)”, the “recombinant barcode read abundance (log10)” value came out at 0.0847.
With “ATTTGCACTTGGGTTCTAACCTGTTGCCT (site ATTTGAACTAG)”, the “recombinant barcode read abundance (log10)” value worked out at 0.14.
For “ATTTGCACTTGGGTTCTAACCTGTTGCCT (site ATTTGCACTAG)” the value was 0.184; for “ATTTGCACTTGGGTTCTAACCTGTTGCCT (site ATTTGGACTAG)”, 0.0348; for “ATTTGCACTTGGGTTCTAACCTGTTGCCT (site ATTTGTACTAG)”, 0.0454.
In the case of “ATTTGTACTTGGGTTCTAACCTGTTGCCT (site ATTTGAACTAG)”, the “recombinant barcode read abundance (log10)” value amounted to 0.0288.
As for “ATTTGTACTTGGGTTCTAACCTGTTGCCT (site ATTTGCACTAG)”, the “recombinant barcode read abundance (log10)” value was determined as 0.0709.
As for “ATTTGTACTTGGGTTCTAACCTGTTGCCT (site ATTTGGACTAG)”, the “recombinant barcode read abundance (log10)” value came to 0.
For “ATTTGTACTTGGGTTCTAACCTGTTGCCT (site ATTTGTACTAG)” the value was 0.293.
Take “CAAACACCTTGGGTTCTAACCTGTTGCCT (site CAAACAACTAG)”: the “recombinant barcode read abundance (log10)” value was determined as 0.0738.
Take “CAAACACCTTGGGTTCTAACCTGTTGCCT (site CAAACACCTAG)”: the “recombinant barcode read abundance (log10)” value was determined as 1.46.
“CAAACACCTTGGGTTCTAACCTGTTGCCT (site CAAACAGCTAG)”: the “recombinant barcode read abundance (log10)” value worked out at 0.682.
For “CAAACACCTTGGGTTCTAACCTGTTGCCT (site CAAACATCTAG)” the value was 0.287; for “CAAACTACTTGGGTTCTAACCTGTTGCAC (site CAAACTACTGT)”, 0.556; for “CAAACTACTTGGGTTCTAACCTGTTGCAC (site CAAACTACTTA)”, 0.0177.
For “CAAAGGGCTTGGGTTCTAACCTGTTGCAG (site CAAAAGGCTCT)”, the “recombinant barcode read abundance (log10)” value amounted to 1.17.
“CAAAGGGCTTGGGTTCTAACCTGTTGCAG (site CAAAGGGCTCT)”: the “recombinant barcode read abundance (log10)” value is 2.29.
Take “CAAAGTCCTTGGGTTCTAACCTGTTGCCT (site CAAAGTCCTAA)”: the “recombinant barcode read abundance (log10)” value is 0.013.
On to “CAAAGTCCTTGGGTTCTAACCTGTTGCCT (site CAAAGTCCTAC)”, for which the “recombinant barcode read abundance (log10)” value was 0.0449.
For the sequence “CAAAGTCCTTGGGTTCTAACCTGTTGCCT (site CAAAGTCCTAG)”, the “recombinant barcode read abundance (log10)” value was 1.12.
“CAAAGTCCTTGGGTTCTAACCTGTTGCCT (site CAAAGTCCTAT)”: the “recombinant barcode read abundance (log10)” value is 0.0828.
In the case of “CAAAGTCCTTGGGTTCTAACCTGTTGCTT (site CAAAGTCCTAA)”, the “recombinant barcode read abundance (log10)” value turned out to be 0.437.
As to “CAAAGTCCTTGGGTTCTAACCTGTTGCTT (site CAAAGTCCTAC)”, the “recombinant barcode read abundance (log10)” value came out at 0.174.
Regarding “CAAAGTCCTTGGGTTCTAACCTGTTGCTT (site CAAAGTCCTAG)”, the “recombinant barcode read abundance (log10)” value was 0.152.
On to “CAAAGTCCTTGGGTTCTAACCTGTTGCTT (site CAAAGTCCTAT)”, for which the “recombinant barcode read abundance (log10)” value stood at 0.429.
Take “CAACCGGCTTGGGTTCTAACCTGTTGCCT (site CAACCGACTAG)”: the “recombinant barcode read abundance (log10)” value amounted to 0.0354.
Consider “CAACCGGCTTGGGTTCTAACCTGTTGCCT (site CAACCGCCTAG)”, for which the “recombinant barcode read abundance (log10)” value was determined as 0.255.
“CAACCGGCTTGGGTTCTAACCTGTTGCCT (site CAACCGGCTAG)”: the “recombinant barcode read abundance (log10)” value amounted to 0.986.
The same measure for “CAACCGGCTTGGGTTCTAACCTGTTGCCT (site CAACCGTCTAG)”: 0.111.
